Patent EP0801063B1, “Thiazolidinedione derivatives having antidiabetic, hypolipidaemic, antihypertensive properties, process for their preparation and pharmaceutical compositions containing them” (Dr. Reddy's Laboratories Ltd., priority 1996, dated 1997)

System: C57BL/KsJ-db/db mice
Experiment: Blood sugar and triglyceride lowering in db/db mice (in vivo test)
Settings: male C57BL/KsJ-db/db mice, 200 mg / kg oral gavage daily for 10 days; for Maximum reduction in RBS level in a 9 days treatment (%): random blood sugar in plasma, glucose oxidase method, relative to vehicle control
Method: Male C57BL/KsJ-db/db mice of 6 weeks age procured from the Jackson Laboratory, USA were used in the experiment. The mice were provided with standard pellets made by National Institute of Nutrition, Hyderabad, India and ad libitum water. The mice of 8 to 14 weeks age, having body weight 40 to 55 grams or more were used for testing.
The random blood sugar (RBS) values were measured by withdrawing blood (20 ul) through orbital sinus, using heparinised capillary, centrifuging the blood to obtain plasma and measuring the glucose level in the plasma by the glucose oxidase method using Stangen glucose-kit. The triglyceride levels in plasma were measured by glycerol 3 PO4 oxidase / peroxidase enzyme method using Stangen kit. Four mice in a group having 300 mg / dl or more of the blood sugar level were used for the test.
The test compounds were suspended in 2.0 % gum acacia and administered to test group at a dose of 200 mg / kg, through oral gavage daily for 10 days. The control group received the vehicle (Gum acacia 2 % 10 ml / kg). The random blood sugar levels and triglyceride levels were measured at diffirent time intervals before and after administration of test compounds. Troglitazone, (200 mg / kg daily dose) was used as a standard compound in the protocol.
The ability of reducing blood sugar level was determined as described below. The mean blood sugar values on zero day before administering the control vehicle (ZC) and treated group (TC) and the means of blood sugar values of the vehicle treated control on 3rd, 6th and 9th day and test compound treated group day control (DC) and day treated (DT).
The blood sugar lowering effect of test compound is calculated according to the following formula : Blood sugar lowering effect (%) = 1 -(DT/TC)/(DC/ZC)X 100 [formula]
The blood triglyceride (TG) lowering activity was calculated as percent reduction on the 9th day as compared to the control animal values.

Structure (SMILES)	Triglyceride lowering (%) (plasma triglyceride, percent reduction on the 9th day compared to control animals)	Maximum reduction in RBS level in a 9 days treatment (%)
Cc1c(C)c2c(c(C)c1O)CCC(C)(CN(C)CCOc1ccc(C=C3SC(=O)NC3=O)cc1)O2 (stereo not drawn) [Example 12, 5-[4-[2-[N-(6-Hydroxy-2,5,7,8-tetramethylchroman-2-ylmethyl)-N-methylamino]ethoxy]phenylmethylene]thiazolidine-2,4-dione]	70%	43%
Cc1c(C)c2c(c(C)c1O)CCC(C)(COc1ccc(CC3SC(=O)NC3=O)cc1)O2 (stereo not drawn) [Troglitazone, reference compound]	–	26%
